Molecular target: T1, Human neutrophil elastase (Homo sapiens, UniProt P08246)
T1 construct: purchased ART Biochemicals, Athens, Ga
T1 sequence (P08246 30-267): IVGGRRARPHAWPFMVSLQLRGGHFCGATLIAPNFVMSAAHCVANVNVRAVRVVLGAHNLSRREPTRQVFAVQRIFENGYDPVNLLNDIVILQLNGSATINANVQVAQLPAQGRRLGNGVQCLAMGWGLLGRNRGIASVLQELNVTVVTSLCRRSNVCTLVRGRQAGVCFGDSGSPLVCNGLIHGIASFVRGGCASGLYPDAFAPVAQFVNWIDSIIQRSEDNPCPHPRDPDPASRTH
Experiment: Inhibitory selectivity of HCV NS3 protease over elastase (human neutrophil elastase assay)
Assay type: biochemical
Conditions: IC50 (elastase) divided by IC50 (HCV NS3)
Experimental: Selectivity of HCV NS3 over elastase can be calculated by dividing IC50 (elastase) over IC50 (HCV NS3). Similarily, selectivity of HCV NS3 over chymotrypsin can be calculated by dividing IC50 (chymotrypsin) over IC50 (HCV NS3).
Human neutrophil elastase was obtained from ART Biochemicals, Athens, Ga. Stock solutions of lyophilized enzyme (1 mg/ml) were prepared in PBS buffer containing 10% glycerol and stored at −20 ° C. Human neutrophil elastase was assayed with the Meo-Suc-Ala-Ala-Pro-Val-p-nitroanilide (Sigma) as a substrate (C. Kettner and A. Shenvi, 1984). The hydrolysis of substrate was monitored at 405 nm on a Hewlett-Packard spectrophotometer.

| Compound | Selectivity of HCV NS3 vs. elastase |
| --- | --- |
| H-Asp-Glu-Val-Val-Pro-(1R)-1-amino-3-(4-chloro)phenylpropylboronic acid (+)-pinanediol ester [Example 22] | >10 |
| H-Asp-Glu-Val-Val-Pro-(1R)-1-amino-3-(4-fluoro)phenylpropylboronic acid (+)-pinanediol ester [Example 16] | >10 |
| H-Asp-Glu-Val-Val-Pro-(1R)-1-amino-3-(3-methyl)phenylpropylboronic acid (+)-pinanediol ester [Example 9] | >10 |
| H-Asp-Glu-Val-Val-Pro-(1R)-1-amino-3-phenylpropylboronic acid (+)-pinanediol ester [Example 3] | >10 |
| CC(C)[C@H](NC(=O)c1cnccn1)C(=O)N[C@H](C(=O)N1C[C@H](OCc2ccccc2)C[C@H]1C(=O)N[C@@H](CCc1ccc(C(F)(F)F)cc1)B1OC2CC3CC(C3(C)C)C2(C)O1)C(C)C (stereo partly drawn) [Example 34, (2-pyrazinecarbonyl)-Val-Val-Hyp(OBzl)-(1R)-1-amino-3-(4-trifluoromethyl)phenylpropylboronic acid (+)-pinanediol ester] | 7 |
| H-Asp-Glu-Val-Val-Pro-(1R)-1-amino-3-(1,1′-biphenyl)-4-ylpropylboronic acid (+)-pinanediol ester [Example 11] | >10 |
| H-Asp-Glu-Val-Val-Pro-(1R)-1-amino-3-(4-methoxy)phenylpropylboronic acid (+)-pinanediol ester [Example 21] | >10 |
| H-Asp-Glu-Val-Val-Pro-(1R)-1-amino-3-(4-methyl)phenylpropylboronic acid (+)-pinanediol ester [Example 10] | >10 |
| H-Asp-Glu-Val-Val-Pro-(1R)-1-amino-3-(4-phenoxy)phenylpropylboronic acid (+)-pinanediol ester [Example 17] | >10 |
| H-Asp-Glu-Val-Val-Pro-(1R)-1-amino-5-methylhexylboronic acid (+)-pinanediol ester [Example 36] | >10 |
| H-Asp-Glu-Val-Val-Pro-(1R)-1-amino-3-(4-hydroxy)phenylpropylboronic acid (+)-pinanediol ester [Example 27] | >10 |
| H-Asp-Glu-Val-Val-Pro-(1R)-1-amino-3-(4-isopropyl)phenylpropylboronic acid (+)-pinanediol ester [Example 18] | >10 |
| H-Asp-Glu-Val-Val-Pro-(1R)-1-amino-3-(4-bromo)phenylpropylboronic acid (+)-pinanediol ester [Example 23] | >10 |
| H-Asp-Glu-Val-Val-Pro-(1R)-1-amino-3-(4-cyclohexyl)phenylpropylboronic acid (+)-pinanediol ester [Example 19] | >10 |
| H-Asp-Glu-Val-Val-Pro-(1R)-1-amino-5-phenylpentylboronic acid (+)-pinanediol ester [Example 5] | 9 |
| H-Asp-Glu-Val-Val-Pro-(1R)-1-amino-3-(4-tert-butyl)phenylpropylboronic acid (+)-pinanediol ester [Example 20] | >10 |
| H-Asp-Glu-Val-Val-Pro-(1R)-1-amino-3-(4-trifluoromethyl)phenylpropylboronic acid (+)-pinanediol ester [Example 14] | >10 |
